“Also recorded” adds a separate entry of the source. Primed or numbered codes have the meaning given here. Where no end group is shown, it is not given here. The star is where a group is joined. FITC = O=C1OC2(c3ccc(O)cc3Oc3cc(O)ccc32)c2ccc(NC(=S)*)cc21; PEG3′ = not defined here; Ahx = NCCCCCC(=O)O
Columns and labels:
PANC‐1 cells = experiment: Fluorescence imaging of PANC‐1 cells with labelled YW7 probes; format: cell-based, human; conditions: 1, 2, 4 μM, 1 h; red filter 700–780 nm
Method: (§1) PANC‐1 and HPDE6‐C7 cells were seeded in six‐well plates at a density of 3 × 10^5 cells·mL^−1 and incubated overnight. The cells were incubated with 25 μM FITC‐YW7 for 30 min and 1 h for flow cytometry analysis of bound and internalized peptide, and cells were incubated with 1, 2, 4 μM FITC‐YW7 or Cy7‐YW7 for 1 h for fluorescence imaging of the live cells. Cells were washed with PBS three times and centrifuged for 5 min after 37 °C incubation. Si‐ANXA2‐ or si‐NC‐transfected PANC‐1 cells were detached with nonenzymatic dissociation solution from six‐well plates. 20 μM FITC‐YW7 was added to the suspended cells and incubated at 37 °C for 15 min. Cells were washed with PBS and centrifuged for 5 min repeating three times. The supernatant was then discarded and the cells were resuspended in PBS. Percent of total cells with fluorescent signals was determined by flow cytometry using a FACSCelesta flow cytometer (BD Biosciences, San Jose, CA, USA). Fluorescence intensity was quantified by an imaging system (Berthold LB983, Bad Wildbad, Sttugart, Germany).
(§2) Supplementary file MOL2-17-872-s002.tif: Fig. S3. Fluorescent‐labeled YW7 probes imaging in vitro. […] P values were determined using paired Student's t‐test. *P < 0.05 versus HPDE6‐C7 (Cy7‐YW7); ^# P < 0.05, ^## P < 0.01 versus PBS; ^$ P < 0.05, ^$$ P < 0.01 versus Cy7. […]

[1] = tested on: PANC‐1 and HPDE6‐C7 cells; experiment: Fluorescence imaging, PANC‐1 versus HPDE6‐C7 cells; format: cell-based, human
Method: as §1, §2

PANC‐1 xenograft tumors = experiment: In vivo NIRF imaging of PANC‐1 xenograft mice; parameters: species or system mouse (BALB/c nude)
From the text: During imaging, mice were anesthetized with 2% isoflurane.

[2] = tested on: ANXA2 (purified recombinant); experiment: ANXA2 affinity column binding with LC/MS detection; conditions: ANXA2 0.7 mg on CNBr‐activated Sepharose; 1 mg YW7; 1 h at 4 °C; UPLC‐G2XS‐QTOF/MS
Method: To prepare the ANXA2‐immobilized affinity column, CNBr‐activated Sepharose (GE Healthcare Bio‐Sciences AB, Uppsala, Sweden) was swelled by 1 mM HCl and coupling buffer. Purified recombinant ANXA2 of 0.7 mg was loaded onto the resin and incubated at 4 °C overnight. After blocking with ethanolamine, the resin was washed with 50 mM Tris–HCl (pH 8.0) and 50 mM Glycine‐0.5 M NaCl (pH 4.0) buffers alternatively for three rounds. Then, the resin was washed with PBS and 1 mg YW7 dissolved in DEPC was added to the ANXA2‐loaded resin. After binding for 1 h at 4 °C, the resin was washed again with 50 mM Tris–HCl (pH 8.0) and 50 mM Glycine‐0.5 M NaCl (pH 4.0) buffers. Eluents were eventually mixed with 50% acetonitrile and analyzed by UPLC‐G2XS‐QTOF/MS (Waters, Milford, MA, USA).

ANXA2 = experiment: siRNA knockdown of ANXA2 in PANC‐1 cells (western blotting, qPCR); format: cell-based, human; conditions: 48 h after transfection, lipofectamine 3000; n = 3
Method: ANXA2 expression in human cells and patients' tissues was determined by western blotting. Cells were lysed on ice in RIPA Lysis Buffer (Beyotime, Shanghai, China) with 1% PMSF for 30 min. Fresh tissues were suspended in RIPA Lysis Buffer with 1% PMSF, homogenized for 2 min, and then lysed on ice for another 30 min. The supernatant was collected and the protein concentration was determined after centrifuging for 10 min at 8000 g . The protein concentration was detected by BCA Protein Assay Kit (Beyotime). Proteins extracts were separated by 12% SDS/PAGE gel and then transferred to the PVDF membranes. Next, the membranes were blocked with 5% skimmed milk powder at room temperature for 1 h. Rabbit primary antibodies specific to ANXA2 (1 : 1000; Cell Signaling Technology, Billerica, CA, USA; #8235S) were used to incubate the membranes at 4 °C overnight. Anti‐β‐tubulin mouse primary antibodies (1 : 5000; EarthOx Life Science, Millbrae, CA, USA; E021040‐01) were applied as a loading control. […] The band density was quantified by IMAGEJ software (National Institutes of Health, Bethesda, MD, USA).
Small interfering RNA (primer sequences: forward 5′‐[…]‐3′ and reverse 5′‐[…]‐3′) was used to downregulate the expression of ANXA2 (si‐ANXA2). […] Knockdown efficiency was evaluated by western blotting and quantitative real‐time PCR. […]

[3] = biological target: T1, GST-fused ANXA2 recombinant protein (UniProt P07355 1-339); experiment: MST; FITC-YW7 at constant concentration, unlabeled ANXA2 diluted in a gradient; MST buffer with 0.05% Tween-20; Monolith NT.115, standard capillaries; apparent KD; conditions: both partners purified
T1 construct: product of 62 kD with GST; No cleavage of GST is described; The size of 62 kD would fit whole ANXA2 (36 kD) plus GST; also called GST-ANXA2; annexin A2; source: E. coli BL21 (DE3), purified (GST tag purification resin)
T1 sequence (P07355 whole entry, the tested form may be a part): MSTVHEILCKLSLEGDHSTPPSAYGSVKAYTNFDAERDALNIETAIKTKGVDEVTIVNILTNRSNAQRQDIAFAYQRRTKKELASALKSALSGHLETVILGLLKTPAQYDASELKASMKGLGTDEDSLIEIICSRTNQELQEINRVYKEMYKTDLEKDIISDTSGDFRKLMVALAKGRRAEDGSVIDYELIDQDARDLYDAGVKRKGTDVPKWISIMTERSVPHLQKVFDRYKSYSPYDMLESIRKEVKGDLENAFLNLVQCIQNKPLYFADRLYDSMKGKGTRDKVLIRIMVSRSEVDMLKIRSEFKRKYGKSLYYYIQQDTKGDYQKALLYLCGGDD

[4] = biological target: T2, ANXA2 on pancreatic cells (human (endogenous in PANC-1 and …, UniProt P07355 1-339)); experiment: other fluorescence titration; PANC-1 cells suspended in FITC-YW7 (0-1.5 μM), 37 °C, 30 min; washed with PBS; fluorescence of the cells read in a plate reader (490/518 nm); apparent Kd; conditions: one partner purified
T2 construct: annexin A2, endogenous in the human pancreatic cancer cell line PANC-1 and the normal human pancreatic ductal cell line HPDE6-C7; which cell line was used is told in each assay's format; also called annexin A2; source: endogenous, on PANC-1 cells; endogenous, on HPDE6-C7 cells
T2 sequence (P07355 whole entry): as the sequence (P07355 whole entry, the tested form may be a part) above

Cy7‐YW7: Cy7 linked to the N terminal of YW7 peptide via spacer of PEG3; NIRF probe ({Cy7-PEG3′}-YWRGVYN)
internalization by PANC‐1 cells, concentration dependence (PANC‐1 cells): preferred to be internalized by PANC‐1 cells in a dose‐dependent manner
fluorescence signal, PANC‐1 versus HPDE6‐C7 ([1]; 4 μM in PBS): stronger fluorescence signal of Cy7‐YW7 was detected after internalization into PANC‐1 cells compared to HPDE6‐C7
uptake in PANC‐1 compared to HPDE6‐C7 cells ([1]; summary statement of abstract): significantly higher uptake in PANC‐1 cells
TBR, as quoted in discussion (PANC‐1 xenograft tumors; 8 nmol i.v.): ~ 2.7
earliest time of significant tumor‐to‐background contrast (PANC‐1 xenograft tumors; 8 nmol i.v.): 1 h
tumor‐to‐background ratio (TBR) (PANC‐1 xenograft tumors; 8 nmol i.v., 2.5 h after injection, n = 4, mean ± SD, P < 0.05 Cy7‐YW7 vs Cy7): 2.7 ± 0.6
tumor fluorescence / contrast (PANC‐1 xenograft tumors; 8 nmol i.v., Cy7‐YW7 versus Cy7, n = 4): stronger fluorescence signals in tumor tissues; also recorded: higher than Cy7; also recorded: enhanced tumor sensitivity and specificity from 1 h after injection
time of highest TBR after injection (PANC‐1 xenograft tumors; 8 nmol i.v., images at 0, 1, 2, 2.5, 3 h): 2.5 h
TBR compared to Cy7 alone (PANC‐1 xenograft tumors; intravenous injection, in abstract): ~ 2.7 ‐fold

YWRGVYN [YW7]
binding to ANXA2 column [2]: eluted from ANXA2‐loading column after incubation with ANXA2 recombinant protein for 1 h and identified

si‐ANXA2: Small interfering RNA, forward 5′‐AGACCAAAGGUGUGGAUGAUU‐3′ and reverse 5′‐UCAUCCACACCUUUGGUCUUU‐3′ (chemistry not fully specified)
ANXA2 protein and mRNA level after knockdown (ANXA2): Downregulated ANXA2 relative protein (D, E) and mRNA (F) levels

B1: FITC-labeled YW7 (peptide)
peptide: {FITC-Ahx}-YWRGVYN
notes: heptapeptide YW7 selected from the Ph.D.-7 phage display library; also called FITC-YW7; source: synthetic peptide, Sangon Biotech
Kd [3]: 12 µM
Kd [4]: 0.0866 µM
